# Assay results published in publication PMC10974930, “Synthesis and Antioxidant Activities of Novel Pyrimidine Acrylamides as Inhibitors of Lipoxygenase: Molecular Modeling and In Silico Physicochemical Studies” (Molecules, 2024).
# Molecular target: T1, soybean lipoxygenase (Glycine max, UniProt P08170)
# T1 construct: gene LOX1.1
# T1 sequence (P08170 1-839): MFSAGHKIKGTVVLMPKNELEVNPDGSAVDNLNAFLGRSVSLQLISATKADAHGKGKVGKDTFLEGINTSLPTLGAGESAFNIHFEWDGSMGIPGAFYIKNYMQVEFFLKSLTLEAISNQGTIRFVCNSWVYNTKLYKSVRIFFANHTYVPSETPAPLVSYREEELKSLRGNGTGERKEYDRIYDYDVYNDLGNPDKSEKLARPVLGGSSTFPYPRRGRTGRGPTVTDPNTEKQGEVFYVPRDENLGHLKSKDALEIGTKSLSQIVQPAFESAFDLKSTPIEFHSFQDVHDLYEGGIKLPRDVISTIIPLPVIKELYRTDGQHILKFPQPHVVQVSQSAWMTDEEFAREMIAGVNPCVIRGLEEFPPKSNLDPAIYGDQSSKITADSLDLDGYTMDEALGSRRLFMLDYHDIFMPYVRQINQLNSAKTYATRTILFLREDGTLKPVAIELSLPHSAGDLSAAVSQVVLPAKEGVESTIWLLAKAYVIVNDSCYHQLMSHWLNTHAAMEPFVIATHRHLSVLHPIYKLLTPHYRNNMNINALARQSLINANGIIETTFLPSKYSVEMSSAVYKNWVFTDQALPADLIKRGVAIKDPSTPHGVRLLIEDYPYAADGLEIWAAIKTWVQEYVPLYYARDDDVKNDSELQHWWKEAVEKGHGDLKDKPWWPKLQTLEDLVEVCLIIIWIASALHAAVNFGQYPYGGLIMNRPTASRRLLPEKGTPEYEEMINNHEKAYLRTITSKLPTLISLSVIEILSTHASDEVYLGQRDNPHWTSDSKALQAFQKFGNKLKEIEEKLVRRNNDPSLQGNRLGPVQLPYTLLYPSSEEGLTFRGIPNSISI
# Assay: UV assay at […] nm of sodium linoleate oxidation by soybean lipoxygenase (Sigma)
# Assay type: biochemical
# Conditions: read-out: % Inhibition of LOX 100 μM or IC50 (μM) *
row,IC50,SMILES
1,1.1 µM,"O=Nc1c(NC(=O)/C=C/c2cccc3ccccc23)[nH]c(N2CCCCC2)nc1=O [compound 9, (E)-3-(naphthalen-1-yl)-N-(5-nitroso-6-oxo-2-(piperidin-1-yl)-3,6-dihydropyrimidin-4-yl)acrylamide]"
2,10.7 µM,"O=Nc1c(NC(=O)/C=C/c2cccs2)[nH]c(N2CCCCC2)nc1=O [compound 5, (E)-N-(5-nitroso-6-oxo-2-(piperidin-1-yl)-3,6-dihydropyrimidin-4-yl)-3-(thiophen-2-yl)acrylamide]"
